In brackets after ≈: the same amount, converted by molar mass. Structures can show the parent of a compound that is named as a salt. Where two headings read alike, the source gives them in different places.
Legend:
[1] = system: Enterococcus faecalis; test: Broth microdilution MIC; assay type: cell-based
Procedure: (§1) Bacterial Isolates. Organisms tested in this study are listed in Table P. Clinical isolates consisted of 5 Staphylococcus aureus (MSSA), 3 Staphylococcus aureus (HA-MRSA), 2 Staphylococcus aureus (CA-MRSA), 2 Enterococcus faecalis (VSE), 2 Streptococcus pyogenes, and 2 Escherichia coli (susceptible to most antibiotics). S. aureus ATCC 29213, E. faecalis ATCC 29212, S. pneumoniae ATCC 49619, and E. coli ATCC 25922 were tested for the purposes of quality control.
(§2) Minimal Inhibitory Concentrations (MIC) values against the selected isolates were determined using the reference broth microdilution method according to the Clinical Laboratory Standards Institute (CLSI) guidelines.
(§3) The MIC was read and recorded as the lowest concentration of drug that inhibited visible growth of the organism.

[2] = system: Escherichia coli; test: Broth microdilution MIC; assay type: cell-based
Procedure: as §1, §2, §3

[3] = system: Staphylococcus aureus; test: Broth microdilution MIC; assay type: cell-based; conditions: Staphylococcus aureus
Procedure: as §1, §2, §3

[4] = system: Streptococcus pneumoniae; test: Broth microdilution MIC; assay type: cell-based
Procedure: as §1, §2, §3

[5] = system: Streptococcus pyogenes; test: Broth microdilution MIC; assay type: cell-based
Procedure: as §1, §2, §3

[6] = Aqueous solubility of salts at 25° C.; assay type: physicochemical; conditions: for solubility: thermodynamic from solid; for Comments (behaviour in solubility experiment): disodium salt; for Solubility in Water: dipotassium salt
[7] = Photostability of solid salts; assay type: physicochemical
[8] = Solid-state stability (HPLC % area after storage); assay type: physicochemical; conditions: for Solid-state stability % Area: 4 weeks; for chemical stability: over 1 month at 30° C./65% RH, closed vials, light protected
Procedure: (§4) Various compounds disclosed herein have been placed on long-term solid-state stability protocol. The compounds were stored in glass vials closed with PTFE lined caps at 30° C./65% RH, 40° C./75% RH, 50° C. and 60° C. (ambient humidity). The results of the study after 4 weeks are shown in Table B1 and after 3 months in Table B2. Appearance and purity analysis were conducted using HPLC and XPRD. The HPLC analyses were conducted using standard equipment such as a Agilent HP1100 HPLC (Station ID: LZPES HPLC 04) with YMC-Pack ODS-AQ sub 3 μm, 150×4.6 mm

[9] = XRPD crystal form after storage; assay type: physicochemical; conditions: 4 weeks storage
Procedure: as §4, with “mm Samples were prepared for XRPD by sprinkling ˜20 mg onto a Si wafer zero background plate and pressing the material flat to ensure the surface is smooth and level. The samples were analyzed according the equipment parameters below.” for “mm”

[10] = ATCC29212, E. faecalis ATCC 29212, read-out: MIC
[11] = E. faecalis 4158, VSE, read-out: MIC
[12] = E. faecalis 4212, VSE, read-out: MIC
[13] = Escherichia coli, ATCC25922, E. coli ATCC 25922, read-out: MIC
[14] = Escherichia coli, E. coli 2214, read-out: MIC
[15] = Escherichia coli, E. coli 5255, read-out: MIC
[16] = ATCC29213, S. aureus ATCC 29213, read-out: MIC
[17] = MRSA, S. aureus 3083, HA-MRSA, read-out: MIC
[18] = MRSA, S. aureus 3086, HA-MRSA, read-out: MIC
[19] = MRSA, S. aureus 3265, HA-MRSA, read-out: MIC
[20] = MSSA, S. aureus 3104, MSSA, read-out: MIC
[21] = MSSA, S. aureus 3107, MSSA, read-out: MIC
[22] = MSSA, S. aureus 3245, MSSA, read-out: MIC
[23] = MSSA, S. aureus 3250, MSSA, read-out: MIC
[24] = MSSA, S. aureus 3856, MSSA, read-out: MIC
[25] = S. aureus 2168, CAMRSA, read-out: MIC
[26] = S. aureus 2294, CAMRSA, read-out: MIC
[27] = ATCC49619, S. pneumoniae ATCC 49619, read-out: MIC
[28] = Streptococcus pyogenes, S. pyogenes 6179, read-out: MIC
[29] = Control (ambient lab conditions protected from light)
[30] = water, 25° C., mg free acid equivalent/mL, read-out: Solubility in Water
[31] = water, 25° C., mg free acid equivalent/mL

O=C(O)c1cn(C2CC2)c2cc(N3CCNCC3)c(F)cc2c1=O [Ciprofloxacin]
MIC [1, 10]: 0.5 µg/mL (≈ 1.51 µM)
MIC [1, 11]: 64 µg/mL (≈ 193 µM)
MIC [1, 12]: 32 µg/mL (≈ 96.6 µM)
MIC [2, 13]: 0.008 µg/mL (≈ 0.0241 µM)
MIC [2, 14]: 0.015 µg/mL (≈ 0.0453 µM)
MIC [2, 15]: 0.008 µg/mL (≈ 0.0241 µM)
MIC [3, 16]: 0.5 µg/mL (≈ 1.51 µM)
MIC [3, 17]: 32 µg/mL (≈ 96.6 µM)
MIC [3, 18]: > 64 µg/mL
MIC [3, 19]: > 64 µg/mL
MIC [3, 20]: 0.25 µg/mL (≈ 0.754 µM)
MIC [3, 21]: 0.5 µg/mL (≈ 1.51 µM)
MIC [3, 22]: 0.5 µg/mL (≈ 1.51 µM)
MIC [3, 23]: 2 µg/mL (≈ 6.04 µM)
MIC [3, 24]: > 64 µg/mL
MIC [3, 25]: 16 µg/mL (≈ 48.3 µM)
MIC [3, 26]: > 64 µg/mL
MIC [4, 27]: 0.5 µg/mL (≈ 1.51 µM)
MIC ([5]; S. pyogenes 6528): 0.5 µg/mL (≈ 1.51 µM)
MIC [5, 28]: 0.5 µg/mL (≈ 1.51 µM)

Cc1c(CN(C)C(=O)/C=C/c2cnc3c(c2)CCC(=O)N3COP(=O)([O-])[O-])oc2ccccc12.[Na+].[Na+] [Compound 9]
solubility ([6]; aqueous buffer, pH 6.6, aqueous buffer, originally amorphous, crystallized within 7 days in aqueous buffer, pH 6.6-7.1, read-out: solubility after crystallization in aqueous buffer): < 5000 µg/mL
Comments (behaviour in solubility experiment) ([6]; water, 25° C.): Forms gels
Comments (behaviour in solubility experiment) ([6]; water, 25° C., listed as bis-sodium): formed unwieldy gels
Control % Area (Table C) ([7]; control sample at ambient lab conditions protected from light): 96.4 % Area
Photo-stability % Area ([7]; exposed to 60% of ICH minimum): 55.9 % Area
Solid-state stability % Area ([8]; 30° C./65% RH): 96.3 % Area
Solid-state stability % Area ([8]; 40° C./75% RH): 84.4 % Area
Solid-state stability % Area ([8]; 50° C./ambient humidity): 86.8 % Area
Solid-state stability % Area ([8]; 60° C./ambient humidity): 85.9 % Area
Solid-state stability % Area [8, 29]: 96.4 % Area
chemical stability [8]: chemically stable
change in XRPD [9]: no change

Cc1c(CN(C)C(=O)/C=C/c2cnc3c(c2)CCC(=O)N3COP(=O)([O-])[O-])oc2ccccc12.[K+].[K+] [Compound 11]
content after storage (degradation) ([8]; 4 weeks at 40/75): ~65%
chemical stability ([8]; 40° C./75% RH and 50° C.): not chemically stable
change in XRPD [9]: some changes

Cc1c(CN(C)C(=O)/C=C/c2cnc3c(c2)CCC(=O)N3COP2(=O)[O][Mg][O]2)oc2ccccc12 [Compound 12, (E)-6-[(N-methyl-((3-methylbenzofuran-2-yl)methyl)amino)-3-oxoprop-1-en-1-yl)-2-oxo-3,4-dihydro-1,8-naphthyridin-1 (2H)-yl]methylphosphate magnesium salt]
solubility [6, 30]: < 1000 µg/mL

Cc1c(CN(C)C(=O)/C=C/c2cnc3c(c2)CCC(=O)N3COP2(=O)[O][Ca][O]2)oc2ccccc12 [Compound 13, (E)-6-[(N-methyl-((3-methylbenzofuran-2-yl)methyl)amino)-3-oxoprop-1-en-1-yl)-2-oxo-3,4-dihydro-1,8-naphthyridin-1(2H)-yl]methylphosphate calcium salt]
solubility [6, 30]: < 100 µg/mL

Cc1c(CN(C)C(=O)/C=C/c2cnc3c(c2)CCC(=O)N3)oc2ccccc12 [Compound IV, (E)-N-methyl-N-((3-methylbenzofuran-2-yl)methyl)-3-(7-oxo-5,6,7,8-tetrahydro-1,8-naphthyridin-3-yl)acrylamide, reference compound]
solubility ([6]; water, 25 °C, water, water, 25° C., mg free acid equivalent/mL, read-out: Solubility in Water): < 1 µg/mL

Cc1c(CN(C)C(=O)/C=C/c2cnc3c(c2)CCC(=O)N3)oc2ccccc12 [Compound Z, (E)-N-methyl-N-((3-methylbenzofuran-2-yl)methyl)-3-(7-oxo-5,6,7,8-tetrahydro-1,8-naphthyridin-3-yl)acrylamide]
MIC [1, 10]: > 2 µg/mL
MIC [1, 11]: > 2 µg/mL
MIC [1, 12]: > 2 µg/mL
MIC [2, 13]: > 2 µg/mL
MIC [2, 14]: > 2 µg/mL
MIC [2, 15]: > 2 µg/mL
MIC [3, 16]: 0.004 µg/mL (≈ 0.0107 µM)
MIC [3, 17]: 0.004 µg/mL (≈ 0.0107 µM)
MIC [3, 18]: 0.03 µg/mL (≈ 0.0799 µM)
MIC [3, 19]: 0.004 µg/mL (≈ 0.0107 µM)
MIC [3, 20]: 0.015 µg/mL (≈ 0.04 µM)
MIC [3, 21]: 0.004 µg/mL (≈ 0.0107 µM)
MIC [3, 22]: 0.015 µg/mL (≈ 0.04 µM)
MIC [3, 23]: 0.004 µg/mL (≈ 0.0107 µM)
MIC [3, 24]: 0.004 µg/mL (≈ 0.0107 µM)
MIC [3, 25]: 0.004 µg/mL (≈ 0.0107 µM)
MIC [3, 26]: 0.03 µg/mL (≈ 0.0799 µM)
MIC [4, 27]: > 2 µg/mL
MIC ([5]; S. pyogenes 6528): >2 µg/mL
MIC [5, 28]: > 2 µg/mL

CC(=O)NC[C@H]1CN(c2ccc(N3CCOCC3)c(F)c2)C(=O)O1 [Linezolid]
MIC [1, 10]: 1 µg/mL (≈ 2.96 µM)
MIC [1, 11]: 1 µg/mL (≈ 2.96 µM)
MIC [1, 12]: 1 µg/mL (≈ 2.96 µM)
MIC [2, 13]: 64 µg/mL (≈ 190 µM)
MIC [2, 14]: > 64 µg/mL
MIC [2, 15]: 64 µg/mL (≈ 190 µM)
MIC [3, 16]: 4 µg/mL (≈ 11.9 µM)
MIC [3, 17]: 2 µg/mL (≈ 5.93 µM)
MIC [3, 18]: 2 µg/mL (≈ 5.93 µM)
MIC [3, 19]: 2 µg/mL (≈ 5.93 µM)
MIC [3, 20]: 2 µg/mL (≈ 5.93 µM)
MIC [3, 21]: 2 µg/mL (≈ 5.93 µM)
MIC [3, 22]: 2 µg/mL (≈ 5.93 µM)
MIC [3, 23]: 4 µg/mL (≈ 11.9 µM)
MIC [3, 24]: 2 µg/mL (≈ 5.93 µM)
MIC [3, 25]: 2 µg/mL (≈ 5.93 µM)
MIC [3, 26]: 2 µg/mL (≈ 5.93 µM)
MIC [4, 27]: 1 µg/mL (≈ 2.96 µM)
MIC ([5]; S. pyogenes 6528): 1 µg/mL (≈ 2.96 µM)
MIC [5, 28]: 1 µg/mL (≈ 2.96 µM)

CN[C@H](CC(C)C)C(=O)N[C@H]1C(=O)N[C@@H](CC(N)=O)C(=O)N[C@H]2C(=O)N[C@H]3C(=O)N[C@H](C(=O)N[C@H](C(=O)O)c4cc(O)cc(O)c4-c4cc3ccc4O)[C@H](O)c3ccc(c(Cl)c3)Oc3cc2cc(c3O[C@@H]2O[C@H](CO)[C@@H](O)[C@H](O)[C@H]2O[C@H]2C[C@](C)(N)[C@H](O)[C@H](C)O2)Oc2ccc(cc2Cl)[C@H]1O [Vancomycin]
MIC ([1]; ATCC29212, E. faecalis ATCC 29212): 1 µg/mL (≈ 0.69 µM)
MIC ([1]; E. faecalis 4158, VSE): > 64 µg/mL
MIC ([1]; E. faecalis 4212, VSE): 16 µg/mL (≈ 11 µM)
MIC ([2]; E. coli 5255): >64 µg/mL
MIC ([2]; Escherichia coli): > 64 µg/mL
MIC ([2]; Escherichia coli, ATCC25922): > 64 µg/mL
MIC ([3]; ATCC29213, S. aureus ATCC 29213): 0.5 µg/mL (≈ 0.345 µM)
MIC ([3]; MRSA, S. aureus 3083, HA-MRSA): 0.5 µg/mL (≈ 0.345 µM)
MIC ([3]; MRSA, S. aureus 3086, HA-MRSA): 1 µg/mL (≈ 0.69 µM)
MIC ([3]; MRSA, S. aureus 3265, HA-MRSA): 0.5 µg/mL (≈ 0.345 µM)
MIC ([3]; MSSA, S. aureus 3104): 0.5 µg/mL (≈ 0.345 µM)
MIC ([3]; MSSA, S. aureus 3107): 0.5 µg/mL (≈ 0.345 µM)
MIC ([3]; MSSA, S. aureus 3245): 0.5 µg/mL (≈ 0.345 µM)
MIC ([3]; MSSA, S. aureus 3250): 0.5 µg/mL (≈ 0.345 µM)
MIC ([3]; MSSA, S. aureus 3856): 1 µg/mL (≈ 0.69 µM)
MIC ([3]; S. aureus 2168, CAMRSA): 1 µg/mL (≈ 0.69 µM)
MIC ([3]; S. aureus 2294, CAMRSA): 1 µg/mL (≈ 0.69 µM)
MIC ([4]; ATCC49619): 0.12 µg/mL (≈ 0.0828 µM)
MIC ([5]; S. pyogenes 6528): 0.25 µg/mL (≈ 0.173 µM)
MIC ([5]; Streptococcus pyogenes): 0.25 µg/mL (≈ 0.173 µM)

(E)-6-[(N-methyl-((3-methylbenzofuran-2-yl)methyl)amino)-3-oxoprop-1-en-1-yl)-2-oxo-3,4-dihydro-1,8-naphthyridin-1(2H)-yl]methylphosphate dipotassium salt [Bis-Potassium (amorphous) (Compound 11)]
Solubility in Water [6, 31]: >100000 µg/mL

(E)-6-[(N-methyl-((3-methylbenzofuran-2-yl)methyl)amino)-3-oxoprop-1-en-1-yl)-2-oxo-3,4-dihydro-1,8-naphthyridin-1(2H)-yl]methylphosphate dipotassium salt [Bis-Potassium (crystalline) (Compound 11)]
Solubility in Water [6, 31]: 30000 to 35000 µg/mL
Solid-state stability % Area ([8]; 30° C./65% RH): 87.8 % Area
Solid-state stability % Area ([8]; 40° C./75% RH): 64.3 % Area
Solid-state stability % Area ([8]; 50° C./ambient humidity): 72.5 % Area
Solid-state stability % Area ([8]; 60° C./ambient humidity): 50.7 % Area
Solid-state stability % Area [8, 29]: 95.4 % Area
